Ends that are not written are not given here.
Experiments:
[1] = test system: food intake of rats; assay: Feeding behavior of rats treated with ART (intracerebroventricular injection); assay type: in vivo, Long-Evans male rats
Experimental: Long-Evans male rats weighing 300–500 grams were chronically implanted in the brain with a 22 gauge cannula aimed at the lateral ventricle. The steriotaxic coordinates for the canulas were approximately: 0.8 mm anterior/posterior; 1.4 mm medial/lateral; and 3.5 mm dorsal/ventral. A 3.5 mm, 28 gauge stylet remained inside the implanted cannula until the animal was ready for an injection. ART peptide or control solutions were administered with a 28 gauge injector that extended about 1 mm beyond the tip of the cannula.
ART peptide was dissolved in PBS (pH about 7.0) and injected into the lateral ventricle at doses ranging from about 0.075 nmol to about 7.5 nmol in a volume of about 2 μl. Controls were PBS and an unfolded version of ART at about 7.5 nmol. Feeding measurements were taken from pre-weighed dishes containing a mixture of ground rodent chow, sugar, and condensed milk. (45%:28%:27%). Rats were offered this mixture along with their regular chow about 24 hours prior to injection. About one and one half hours prior to infusion, the regular chow was removed, but the rats were allowed to continue feeding on the sweetened mixture. Injections were done at 8:30 am or at 8:30 pm. Food intake was assessed by weighing the dishes over time at 90 minutes, 4 hours, 8 hours, 12 hours, and 24 hours after injection. 10–12 rats were used per group.

[2] = test system: feeding response of rats; details: injection into the brain of rats; cited from earlier work
[3] = target: T1, MC1 receptor (Mus musculus, UniProt Q01727); details: B16F10 mouse melanoma cell cultures; cited from earlier work
T1 construct: at the MC1 receptor in B16F10 mouse melanoma cell cultures; endogenous in cells; host or cells: B16F10 mouse melanoma cells
T1 sequence (Q01727 whole entry): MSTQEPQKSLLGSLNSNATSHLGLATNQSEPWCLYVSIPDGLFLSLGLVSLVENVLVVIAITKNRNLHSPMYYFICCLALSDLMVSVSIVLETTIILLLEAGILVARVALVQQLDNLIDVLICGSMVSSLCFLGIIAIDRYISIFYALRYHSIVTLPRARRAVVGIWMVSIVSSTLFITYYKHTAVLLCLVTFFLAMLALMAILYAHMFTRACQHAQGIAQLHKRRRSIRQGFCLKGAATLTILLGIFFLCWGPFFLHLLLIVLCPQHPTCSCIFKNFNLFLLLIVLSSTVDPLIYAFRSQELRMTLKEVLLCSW

Molecule: folded ART: synthetic peptide containing amino acids 79–132 of ART (SEQ ID NO:8), refolded in Tris-HCl/urea (REPRSSRRCVRLHESCLGQQVPCCDPCATCYCRFFNAFCYCRKLGTAMNPCSRT; cysteine pairing not given here; also: refolded)
- food intake (cumulative amount of food consumed) ([1]; injection into lateral ventricle, 0.075-7.5 nmol in about 2 μl, measured 90 minutes to 24 hours after injection, vs PBS and unfolded ART controls): increased their food intake as compared to controls
- relation between amount of ART injected and amount of food eaten ([1]; lateral ventricle, doses about 0.075 nmol to about 7.5 nmol): correlation between the amount of ART injected and the amount of food eaten

Molecule: melanin concentrating hormone (DFDMLRCMLGRVYRPCWQV; ends and bridges not checked; cysteine pairing not given here; UniProt P20382 147-165, looked up) [MCH]
- feeding response [2]: stimulates a feeding response

B1: mouse agouti protein: 131 amino acid secreted protein encoded by the mouse agouti gene (protein, UniProt Q03288 23-131, looked up)
Agouti-signaling protein: HLALEETLGDDRSLRSNSSMNSLDFSSVSIVALNKKSKKISRKEAEKRKRSSKKKASMKKVARPPPPSPCVATRDSCKPPAPACCDPCASCQCRFFGSACTCRVLNPNC
- antagonism of a-MSH at the MC1 receptor [3]: potent antagonist
